Reference: patent US11840686B2, “Modulation of prekallikrein (PKK) expression” (Ionis Pharmaceuticals, Inc., priority 2013, dated 2023)
Strand notation (5' to 3'): a small letter for the sugar, then the base; units joined by * are phosphorothioate-linked, units joined directly phosphodiester-linked; [ ] holds rarer units or linkages, { } end groups; capitals alone tell only the bases. e = 2'-O-(2-methoxyethyl) (MOE); k = constrained ethyl (cEt); [5mC] = 5-methylcytosine; d = 2'-deoxy (DNA)

These substances were tested on human PKK mRNA (assay: Antisense inhibition of human PKK mRNA in HepaRG cells, 1,000 nM, MOE/deoxy/cEt oligonucleotides (Example 3)). Conditions: Table 21 experiment; HepaRG cells, electroporation with 1,000 nM antisense oligonucleotide, approx. 24 hours; PKK mRNA by RT-PCR (RTS3454), relative to untreated control cells.
Type: cell-based
Procedure: Additional antisense oligonucleotides were designed targeting a PKK nucleic acid and were tested for their effects on PKK mRNA in vitro.
The chimeric antisense oligonucleotides in the tables below were designed as deoxy, MOE and cEt gapmers. The gapmers are 16 nucleosides in length wherein the nucleoside have either a MOE sugar modification, a cEt sugar modification, or a deoxy modification. The ‘Chemistry’ column describes the sugar modifications of each oligonucleotide. ‘k’ indicates an cEt sugar modification; the number indicates the number of deoxynucleosides; otherwise, indicates a deoxynucleoside; and ‘e’ indicates a 2′-O-methoxyethyl modification. The internucleoside linkages throughout each gapmer are phosphorothioate linkages. All cytosine residues throughout each oligonucleotide are 5-methylcytosines. “Start site” indicates the 5′-most nucleoside to which the gapmer is targeted in the human gene sequence. “Stop site” indicates the 3′-most nucleoside to which the gapmer is targeted in the human gene sequence.
Cultured HepaRG™ cells at a density of 20,000 cells per well were transfected using electroporation with 1,000 nM antisense oligonucleotide. After a treatment period of approximately 24 hours, RNA was isolated from the cells and PKK mRNA levels were measured by quantitative real-time PCR. Human primer probe set RTS3454 was used to measure mRNA levels. ISIS 531231 was also included in this assay. PKK mRNA levels were adjusted according to total RNA content, as measured by RIBOGREEN®. The antisense oligonucleotides were tested in a series of experiments that had similar culture conditions. Results are presented as percent inhibition of PKK, relative to untreated control cells.
For “547751 (eT*eG*kA*dA*d[5mC]*dG*dG*dT*d[5mC]*dT*dT*d[5mC]*dA*kA*kG*e[5mC]; antisense) [compound 547751]”, the “% inhibition” value was 0%. With “547753 (eA*eT*kG*dA*dA*d[5mC]*dG*dG*dT*d[5mC]*dT*dT*d[5mC]*kA*kA*eG; antisense) [compound 547753]” the “% inhibition” value was 3%. With “547755 (eT*eA*kA*dA*dA*dA*dT*dG*dA*dA*d[5mC]*dG*dG*kT*k[5mC]*eT; antisense) [compound 547755]” the “% inhibition” value was 0%. “547757 (antisense eG*eA*kG*dT*d[5mC]*dT*d[5mC]*dT*dT*dG*dT*d[5mC]*dA*k[5mC]*kT*eT) [compound 547757]” was tested, and the “% inhibition” value was 69%. “547759 (antisense eT*eG*kA*dG*dT*d[5mC]*dT*d[5mC]*dT*dT*dG*dT*d[5mC]*kA*k[5mC]*eT) [compound 547759]” was tested, and the “% inhibition” value was 73%. In the case of “547763 (antisense eG*eG*kT*dG*dA*dG*dT*d[5mC]*dT*d[5mC]*dT*dT*dG*kT*k[5mC]*eA) [compound 547763]”, the “% inhibition” value is reported as 66%. With “547765 (antisense eA*eG*kG*dT*dG*dA*dG*dT*d[5mC]*dT*d[5mC]*dT*dT*kG*kT*e[5mC]) [compound 547765]” the “% inhibition” value was 20%. “547767 (antisense eT*eG*kG*dA*dG*dG*dT*dG*dA*dG*dT*d[5mC]*dT*k[5mC]*kT*eT) [compound 547767]” was tested, and the “% inhibition” value was 74%. For “547771 (antisense e[5mC]*eT*kT*dG*dG*dA*dG*dG*dT*dG*dA*dG*dT*k[5mC]*kT*e[5mC]) [compound 547771]”, the “% inhibition” value was 60%. For “547773 (antisense eT*e[5mC]*kT*dT*dG*dG*dA*dG*dG*dT*dG*dA*dG*kT*k[5mC]*eT) [compound 547773]”, the “% inhibition” value was 47%.

Each substance was assayed on human PKK mRNA (assay: Antisense inhibition of human PKK mRNA in HepaRG cells, 5,000 nM (Example 2)). Conditions: human PKK mRNA, HepaRG cells, 5,000 nM antisense oligonucleotide, Table 18.
Type: cell-based
How it was run: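 Percent inhibition of PKK mRNA is reported relative to untreated cells, after adjustment for total RNA by RIBOGREEN. Gapmers of 16–20 nucleosides with 2′-MOE wings were delivered at 5,000 nM by electroporation into HepaRG cells and left for roughly 24 hours before RNA isolation.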
“548738 (DNA eT*eA*e[5mC]*eT*dA*dG*dT*dT*dT*d[5mC]*d[5mC]*dT*dA*eT*eA*eA*e[5mC]; antisense) [compound 548738]” was tested, and the “% inhibition” value was 0%. With “548739 (DNA eG*eT*eA*e[5mC]*dT*dA*dG*dT*dT*dT*d[5mC]*d[5mC]*dT*eA*eT*eA*eA; antisense) [compound 548739]” the “% inhibition” value was 0%. In the case of “548740 (DNA eT*eG*eT*eA*d[5mC]*dT*dA*dG*dT*dT*dT*d[5mC]*d[5mC]*eT*eA*eT*eA; antisense) [compound 548740]”, the “% inhibition” value is reported as 0%. For “548741 (DNA e[5mC]*eT*eG*eT*dA*d[5mC]*dT*dA*dG*dT*dT*dT*d[5mC]*e[5mC]*eT*eA*eT; antisense) [compound 548741]”, the “% inhibition” value was 69%. In the case of “548742 (DNA eA*e[5mC]*eT*eG*dT*dA*d[5mC]*dT*dA*dG*dT*dT*dT*e[5mC]*e[5mC]*eT*eA; antisense) [compound 548742]”, the “% inhibition” value is reported as 50%. For “548745 (DNA eA*eT*e[5mC]*eA*d[5mC]*dT*dG*dT*dA*d[5mC]*dT*dA*dG*eT*eT*eT*e[5mC]; antisense) [compound 548745]”, the “% inhibition” value was 71%. With “548746 (antisense eT*eA*eT*e[5mC]*dA*d[5mC]*dT*dG*dT*dA*d[5mC]*dT*dA*eG*eT*eT*eT) [compound 548746]” the “% inhibition” value was 40%. With “548747 (antisense eT*eA*e[5mC]*eT*dA*dG*dT*dT*dT*d[5mC]*d[5mC]*dT*dA*dT*eA*eA*e[5mC]*eT) [compound 548747]” the “% inhibition” value was 2%. For “548748 (antisense eG*eT*eA*e[5mC]*dT*dA*dG*dT*dT*dT*d[5mC]*d[5mC]*dT*dA*eT*eA*eA*e[5mC]) [compound 548748]”, the “% inhibition” value was 0%. With “548749 (antisense eT*eG*eT*eA*d[5mC]*dT*dA*dG*dT*dT*dT*d[5mC]*d[5mC]*dT*eA*eT*eA*eA) [compound 548749]” the “% inhibition” value was 0%. With “548750 (antisense e[5mC]*eT*eG*eT*dA*d[5mC]*dT*dA*dG*dT*dT*dT*d[5mC]*d[5mC]*eT*eA*eT*eA) [compound 548750]” the “% inhibition” value was 62%. For “548751 (antisense eA*e[5mC]*eT*eG*dT*dA*d[5mC]*dT*dA*dG*dT*dT*dT*d[5mC]*e[5mC]*eT*eA*eT) [compound 548751]”, the “% inhibition” value was 53%. “548754 (antisense eA*eT*e[5mC]*eA*d[5mC]*dT*dG*dT*dA*d[5mC]*dT*dA*dG*dT*eT*eT*e[5mC]*e[5mC]) [compound 548754]” was tested, and the “% inhibition” value was 77%. In the case of “548755 (antisense eT*eA*eT*e[5mC]*dA*d[5mC]*dT*dG*dT*dA*d[5mC]*dT*dA*dG*eT*eT*eT*e[5mC]) [compound 548755]”, the “% inhibition” value is reported as 20%. “548759 (antisense eA*eA*e[5mC]*eA*dG*dT*dA*dT*d[5mC]*dA*d[5mC]*dT*dG*eT*eA*e[5mC]*eT) [compound 548759]” was tested, and the “% inhibition” value was 68%. “548760 (antisense eT*eA*eA*e[5mC]*dA*dG*dT*dA*dT*d[5mC]*dA*d[5mC]*dT*eG*eT*eA*e[5mC]) [compound 548760]” was tested, and the “% inhibition” value was 53%. For “548761 (antisense e[5mC]*eT*eA*eA*d[5mC]*dA*dG*dT*dA*dT*d[5mC]*dA*d[5mC]*eT*eG*eT*eA) [compound 548761]”, the “% inhibition” value was 49%. “548762 (antisense eT*e[5mC]*eT*eA*dA*d[5mC]*dA*dG*dT*dA*dT*d[5mC]*dA*e[5mC]*eT*eG*eT) [compound 548762]” was tested, and the “% inhibition” value was 16%. For “548763 (antisense e[5mC]*eT*e[5mC]*eT*dA*dA*d[5mC]*dA*dG*dT*dA*dT*d[5mC]*eA*e[5mC]*eT*eG) [compound 548763]”, the “% inhibition” value was 44%. “548764 (antisense eT*eA*eT*e[5mC]*dA*d[5mC]*dT*dG*dT*d[5mC]*d[5mC]*dT*dA*eT*eA*eA*e[5mC]) [compound 548764]” was tested, and the “% inhibition” value was 31%. With “548765 (antisense eA*eT*eA*eT*d[5mC]*dA*d[5mC]*dT*dG*dT*d[5mC]*d[5mC]*dT*eA*eT*eA*eA) [compound 548765]” the “% inhibition” value was 0%. For “548766 (antisense eT*eA*eT*eA*dT*d[5mC]*dA*d[5mC]*dT*dG*dT*d[5mC]*d[5mC]*eT*eA*eT*eA) [compound 548766]”, the “% inhibition” value was 36%. For “548767 (antisense eT*eA*eT*e[5mC]*dA*d[5mC]*dT*dG*dT*d[5mC]*d[5mC]*dT*dA*eT*eA*eT*e[5mC]) [compound 548767]”, the “% inhibition” value was 59%. “548768 (antisense eG*eT*eA*eT*d[5mC]*dA*d[5mC]*dT*dG*dT*d[5mC]*d[5mC]*dT*eA*eT*eA*eT) [compound 548768]” was tested, and the “% inhibition” value was 56%. With “548769 (antisense eA*eG*eT*eA*dT*d[5mC]*dA*d[5mC]*dT*dG*dT*d[5mC]*d[5mC]*eT*eA*eT*eA) [compound 548769]” the “% inhibition” value was 64%. “548771 (antisense eA*eT*eA*eA*d[5mC]*dA*dG*dT*dA*dT*d[5mC]*dA*d[5mC]*eT*eG*eT*e[5mC]) [compound 548771]” was tested, and the “% inhibition” value was 62%. For “548772 (antisense eT*eA*eT*eA*dA*d[5mC]*dA*dG*dT*dA*dT*d[5mC]*dA*e[5mC]*eT*eG*eT) [compound 548772]”, the “% inhibition” value was 0%. For “548773 (antisense e[5mC]*eT*eA*eT*dA*dA*d[5mC]*dA*dG*dT*dA*dT*d[5mC]*eA*e[5mC]*eT*eG) [compound 548773]”, the “% inhibition” value was 0%. “548774 (antisense e[5mC]*e[5mC]*eT*eA*dT*dA*dA*d[5mC]*dT*dA*dT*dA*dA*e[5mC]*eA*eG*eT) [compound 548774]” was tested, and the “% inhibition” value was 0%. “548775 (antisense eT*e[5mC]*e[5mC]*eT*dA*dT*dA*dA*d[5mC]*dT*dA*dT*dA*eA*e[5mC]*eA*eG) [compound 548775]” was tested, and the “% inhibition” value was 0%. “548776 (antisense e[5mC]*e[5mC]*eT*eA*dT*dA*dA*d[5mC]*dT*dA*dT*dA*dA*e[5mC]*eA*eA*eT) [compound 548776]” was tested, and the “% inhibition” value was 0%. In the case of “548777 (antisense eG*eT*eA*eA*d[5mC]*dA*dG*dT*dA*dT*d[5mC]*dA*d[5mC]*eT*eG*eT*eA) [compound 548777]”, the “% inhibition” value is reported as 41%. In the case of “548778 (antisense eA*eT*eA*eA*d[5mC]*dA*dG*dT*dA*dT*d[5mC]*dA*d[5mC]*eT*eG*eT*eA) [compound 548778]”, the “% inhibition” value is reported as 20%. “548779 (antisense eG*eT*e[5mC]*e[5mC]*dT*dA*dT*dA*dA*d[5mC]*dT*dA*dT*eA*eA*e[5mC]*eA) [compound 548779]” was tested, and the “% inhibition” value was 0%. In the case of “548780 (antisense eT*eG*eT*e[5mC]*d[5mC]*dT*dA*dT*dA*dA*d[5mC]*dT*dA*eT*eA*eA*e[5mC]) [compound 548780]”, the “% inhibition” value is reported as 22%. With “548781 (antisense eA*e[5mC]*e[5mC]*eT*dA*dT*dA*dA*d[5mC]*dT*dA*dT*dA*eA*e[5mC]*eA*eG) [compound 548781]” the “% inhibition” value was 0%. In the case of “548782 (antisense eT*eA*e[5mC]*e[5mC]*dT*dA*dT*dA*dA*d[5mC]*dT*dA*dT*eA*eA*e[5mC]*eA) [compound 548782]”, the “% inhibition” value is reported as 0%. “548783 (antisense eA*e[5mC]*e[5mC]*eT*dA*dT*dA*dA*d[5mC]*dT*dA*dT*dA*eA*e[5mC]*eA*eA) [compound 548783]” was tested, and the “% inhibition” value was 0%.
